Data as given in patent US20130217664A1, “NOVEL COMPOUNDS USEFUL FOR THE TREATMENT OF DEGENERATIVE AND INFLAMMATORY DISEASES” (priority 2012, published 2013).

Key:
[1] = target: T1, human JAK1 (Homo sapiens, UniProt P23458); assay: JAK1 inhibition assay (polyGT substrate / Ulight-JAK1 peptide); assay type: biochemical; settings: recombinant human JAK1 catalytic domain; polyGT or Ulight-JAK1 peptide assay
T1 construct: catalytic domain, amino acids 866-1154; catalog number PV4774; purchased Invitrogen PV4774
T1 sequence (P23458 866-1154): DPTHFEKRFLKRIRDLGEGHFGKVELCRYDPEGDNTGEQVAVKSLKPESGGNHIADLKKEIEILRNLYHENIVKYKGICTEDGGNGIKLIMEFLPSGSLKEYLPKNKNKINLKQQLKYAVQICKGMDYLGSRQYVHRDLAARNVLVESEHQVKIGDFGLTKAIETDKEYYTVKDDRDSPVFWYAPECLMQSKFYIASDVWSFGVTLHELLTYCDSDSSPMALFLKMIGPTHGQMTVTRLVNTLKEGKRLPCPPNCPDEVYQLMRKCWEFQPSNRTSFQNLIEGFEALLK
Procedure, shortened: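 Signal scaled between vehicle and 10 μM staurosporine. Radiometric polyGT reactions ran 45 min at 30 °C, counted after phosphoric-acid stop. Ulight peptide reactions ran 60 min at room temperature, fluorescence read after adding Eu-PT66 detection mix with EDTA.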

[2] = target: T2, human JAK3 (Homo sapiens, UniProt P52333); assay: JAK3 inhibition assay; assay type: biochemical; settings: recombinant human JAK3 catalytic domain; polyGT substrate
T2 construct: catalytic domain (amino acids 781-1124; catalog number PV3855); purchased Invitrogen PV3855
T2 sequence (P52333 781-1124): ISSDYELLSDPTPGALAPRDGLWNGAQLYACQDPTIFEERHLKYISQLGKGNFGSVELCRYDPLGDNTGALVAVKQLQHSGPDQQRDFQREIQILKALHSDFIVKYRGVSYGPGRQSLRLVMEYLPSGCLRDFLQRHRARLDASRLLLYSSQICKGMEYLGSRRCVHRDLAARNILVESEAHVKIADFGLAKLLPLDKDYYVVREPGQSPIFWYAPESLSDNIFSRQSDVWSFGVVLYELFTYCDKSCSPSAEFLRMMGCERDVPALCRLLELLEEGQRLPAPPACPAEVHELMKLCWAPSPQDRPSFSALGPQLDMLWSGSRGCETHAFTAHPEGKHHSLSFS
Procedure, shortened: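 Radiometric kinase assay: 0.5 ng JAK3 with 2.5 μg polyGT in Tris pH 7.5/MgCl2 buffer, 1 μM ATP plus 0.25 μCi 33P-γ-ATP, 1% DMSO, 45 min at 30 °C, stopped with phosphoric acid.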

[3] = test system: CTLL-2 cell line; assay: CTLL2 viability assay; assay type: cell-based; settings: Mus musculus, IL-2 dependent CTLL2 viability, 24 h, ATP-lite
Excerpt: The protocol describes the methods to analyse the activity of compounds on their ability to sustain the IL2-dependent viability of CTLL2.
Final DMSO concentration was 0.1%.

[4] = test system: BA/F3 cell line; assay: BA/F3 viability assay; settings: Mus musculus, BaF3, 48 h, read-out: BA/F3 IC50
[5] = target: T3, human TYK2 (Homo sapiens, UniProt P29597); assay: TYK2 inhibition assay; assay type: biochemical; settings: recombinant human TYK2 catalytic domain, polyGT substrate
T3 construct: catalytic domain (amino acids 871-1187; catalog number 08-147); purchased Carna Biosciences 08-147
T3 sequence (P29597 871-1187): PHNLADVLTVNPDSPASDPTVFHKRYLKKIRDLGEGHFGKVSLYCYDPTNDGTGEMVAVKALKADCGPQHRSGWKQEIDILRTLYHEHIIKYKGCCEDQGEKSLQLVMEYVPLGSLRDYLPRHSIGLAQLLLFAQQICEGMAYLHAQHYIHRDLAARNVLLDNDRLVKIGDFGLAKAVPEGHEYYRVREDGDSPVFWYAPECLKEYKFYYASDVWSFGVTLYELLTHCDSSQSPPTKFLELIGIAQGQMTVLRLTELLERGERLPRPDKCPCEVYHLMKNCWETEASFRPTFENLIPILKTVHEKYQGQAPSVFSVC
Procedure, shortened: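 Radiometric kinase reaction run 90 min at 30 °C, stopped with phosphoric acid, washed and scintillation-counted.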

[6] = test system: pSTAT1(2)-luciferase reporter in HeLa cells triggered with human OSM; assay: JAK-STAT signalling assay; assay type: cell-based; settings: Homo sapiens, HeLa, HeLa cells, pSTAT1(2)-luciferase reporter, human OSM 33 ng/mL; read-out: JAK-STAT IC50
Procedure, shortened: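 Compound added 60 min before 33 ng/mL (final) human OSM; after overnight stimulation at 37 °C, luciferase signal from a transiently transfected pSTAT1(2) reporter in HeLa cells was read, with LacZ as internal control. EC50 derived from percent-inhibition dose-response curves.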

[7] = target: T4, human JAK2 (Homo sapiens, UniProt O60674); assay: JAK2 inhibition assay (polyGT substrate / Ulight-JAK1 peptide); assay type: biochemical; settings: recombinant human JAK2 catalytic domain; polyGT or Ulight-JAK1 peptide assay
T4 construct: catalytic domain (amino acids 808-1132; catalog number PV4210); GST; purchased Invitrogen PV4210
T4 sequence (O60674 808-1132): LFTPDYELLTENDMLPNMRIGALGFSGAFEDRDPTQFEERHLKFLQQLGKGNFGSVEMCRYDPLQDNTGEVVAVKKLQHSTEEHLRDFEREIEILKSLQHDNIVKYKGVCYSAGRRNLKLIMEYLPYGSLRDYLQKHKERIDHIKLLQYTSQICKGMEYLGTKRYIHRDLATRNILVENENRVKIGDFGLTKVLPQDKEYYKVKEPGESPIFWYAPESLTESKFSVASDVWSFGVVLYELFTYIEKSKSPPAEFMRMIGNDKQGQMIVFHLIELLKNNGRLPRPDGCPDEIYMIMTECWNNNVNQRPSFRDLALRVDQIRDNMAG
Procedure, shortened: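 Two JAK2 formats: a ^33P-ATP polyGT assay (1 μM cold ATP, 90 min, 30° C., cpm read-out) and a Ulight-JAK1 peptide assay read by Europium-anti-phosphotyrosine fluorescence after 60 min at room temperature.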

| Structure (SMILES) | IC50 [1] [nM] | IC50 [2] [nM] | IC50 [4] [nM] | IC50 [5] [nM] | IC50 [6] [nM] | IC50 [7] [nM] | IC50 [3] [nM] |
| --- | --- | --- | --- | --- | --- | --- | --- |
| CCc1cc(C2CN(CCC(F)(F)F)C2)ncc1N(C)c1cc2c(cn1)ncn2C [Compound 341, {4-Ethyl-6-[1-(3,3,3-trifluoro-propyl)-azetidin-3-yl]-pyridin-3-yl}-methyl-(1-methyl-1H-imidazo[4,5-c]pyridin-6-yl)-amine] | 101 to 500 | > 1000 | > 5000 | > 1000 | – | > 1000 | > 1000 |
| CCc1cc(N2CC(F)(F)C2)ncc1N(C)c1cc2c(cn1)ncn2C [Compound 413, [6-(3,3-Difluoro-azetidin-1-yl)-4-ethyl-pyridin-3-yl]-methyl-(1-methyl-1H-imidazo[4,5-c]pyridin-6-yl)-amine] | 0.01 to 100 | 101 to 500 | 1000 to 5000 | 0.01 to 100 | – | 0.01 to 100 | > 1000 |
| CCc1cc(C2CN(C(=O)C(F)(F)F)C2)ccc1N(C)c1cc2c(cn1)ncn2C [Compound 347, 1-(3-{3-Ethyl-4-[methyl-(1-methyl-1H-imidazo[4,5-c]pyridin-6-yl)-amino]-phenyl}-azetidin-1-yl)-2,2,2-trifluoro-ethanone] | 0.01 to 100 | 101 to 500 | > 5000 | 101 to 500 | – | 101 to 500 | > 1000 |
| CCc1cc(CN(C)S(C)(=O)=O)cc(F)c1N(C)c1cc2c(cn1)ncn2C [Compound 356, N-{3-Ethyl-5-fluoro-4-[methyl-(1-methyl-M-imidazo[4,5-c]pyridin-6-yl)-amino]-benzyl}-N-methyl-methanesulfonamide] | 0.01 to 100 | 0.01 to 100 | 1000 to 5000 | 0.01 to 100 | – | 0.01 to 100 | 501 to 1000 |
| CCc1cc(N2CC(C#N)C2)ncc1N(C)c1cc2c(cn1)ncn2C [Compound 402, 1-{4-Ethyl-5-[methyl-(1-methyl-1H-imidazo[4,5-c]pyridin-6-yl)-amino]-pyridin-2-yl}-azetidine-3-carbonitrile] | 0.01 to 100 | 101 to 500 | 1000 to 5000 | 0.01 to 100 | – | 0.01 to 100 | > 1000 |
| CCc1cc(C(C#N)N2CC(C#N)C2)ccc1N(C)c1cc2c(cn1)ncn2C (centres unmarked) [Compound 391, 1-(Cyano-{3-ethyl-4-[methyl-(1-methyl-1H-imidazo[4,5-c]pyridin-6-yl)-amino]-phenyl}-methyl)-azetidine-3-carbonitrile] | 0.01 to 100 | 101 to 500 | 1000 to 5000 | 0.01 to 100 | – | 0.01 to 100 | > 1000 |
| CN(c1cc2c(cn1)ncn2C)c1c(F)cc(CNS(C)(=O)=O)cc1F [Compound 404, N-{3,5-Difluoro-4[methyl-(1-methyl-1H-imidazo[4,5-c]pyridin-6-yl)-amino]-benzyl}-methanesulfonamide] | 0.01 to 100 | 101 to 500 | > 5000 | 101 to 500 | – | 0.01 to 100 | > 1000 |
| CCc1cc(C2CN(CC(F)(F)F)C2)ncc1N(C)c1cc2c(cn1)ncn2C [Compound 342, {4-Ethyl-6-[1-(2,2,2-trifluoro-ethyl)-azetidin-3-yl]-pyridin-3-yl}-methyl-(1-methyl-1H-imidazo[4,5-c]pyridin-6-yl)-amine] | 101 to 500 | > 1000 | > 5000 | > 1000 | – | > 1000 | > 1000 |
| CCc1cc(N2CC(C(=O)NC)C2)ncc1N(C)c1cc2c(cn1)ncn2C [Compound 400, 1-{4-Ethyl-5-[methyl-(1-methyl-1H-imidazo[4,5-c]pyridin-6-yl)-amino]-pyridin-2-yl}-azetidine-3-carboxylic acid methylamide] | 101 to 500 | > 1000 | > 5000 | 501 to 1000 | – | 501 to 1000 | > 1000 |

More lines, main results first:

| IC50 [1] [nM] | IC50 [2] [nM] | IC50 [4] [nM] | IC50 [5] [nM] | IC50 [6] [nM] | IC50 [7] [nM] | Structure (SMILES) | IC50 [3] [nM] |
| --- | --- | --- | --- | --- | --- | --- | --- |
| 0.01 to 100 | 101 to 500 | 1000 to 5000 | 101 to 500 | 1 to 500 | – | CCc1cc(CNS(=O)(=O)N2CCCCC2)ccc1N(C)c1cc2c(cn1)ncn2C [Compound 243, N-(3-ethyl-4-(methyl(1-methyl-1H-imidazo[4,5-c]pyridin-6-yl)amino)benzyl)piperidine-1-sulfonamide] | > 1000 |
| 0.01 to 100 | 101 to 500 | 1000 to 5000 | 0.01 to 100 | 1 to 500 | – | CCc1cc(C2CCOCC2)ccc1N(C)c1cc2c(cn1)ncn2C [Compound 186, N-(2-Ethyl-4-(tetrahydro-2H-pyran-4-yl)phenyl)-N,1-dimethyl-1H-imidazo[4,5-c]pyridin-6-amine] | > 1000 |
| 0.01 to 100 | – | 1 to 1000 | 0.01 to 100 | 1 to 500 | – | CCc1cc(C2CCN(S(C)(=O)=O)CC2)ccc1N(C)c1cc2c(cn1)ncn2C [Compound 214, N-(2-ethyl-4-(1-(methylsulfonyl)piperidin-4-yl)phenyl)-N,1-dimethyl-1H-imidazo[4,5-c]pyridin-6-amine] | 501 to 1000 |
| 0.01 to 100 | 0.01 to 100 | > 5000 | 0.01 to 100 | – | 0.01 to 100 | CCc1cc(C(C#N)N2CCN(S(C)(=O)=O)CC2)ccc1N(C)c1cc2c(cn1)ncn2C (centres unmarked) [Compound 390, {3-Ethyl-4-[methyl-(1-methyl-1H-imidazo[4,5-c]pyridin-6-yl)-amino]-phenyl}-(4-methanesulfonyl-piperazin-1-yl)-acetonitrile] | > 1000 |
| 0.01 to 100 | 0.01 to 100 | 1000 to 5000 | 0.01 to 100 | – | 0.01 to 100 | CCc1cc(CC#N)ccc1N(C)c1cc2c(cn1)ncn2C [Compound 406, {3-Ethyl-4-[methyl-(1-methyl-1H-imidazo[4,5-c]pyridin-6-yl)-amino]-phenyl}-acetonitrile] | 501 to 1000 |
| 0.01 to 100 | > 1000 | > 5000 | 501 to 1000 | – | 101 to 500 | CCc1cc(CN2CC(C#N)C2)ccc1N(C)c1cc2c(cn1)ncn2C [Compound 381, 1-{3-Ethyl-4-[methyl-(1-methyl-1H-imidazo[4,5-c]pyridin-6-yl)-amino]-enzyl}-azetidine-3-carbonitrile] | > 1000 |
| 0.01 to 100 | 0.01 to 100 | > 5000 | 0.01 to 100 | – | 0.01 to 100 | CCc1cc(C2CN(S(=O)(=O)CC(F)(F)F)C2)ccc1N(C)c1cc2c(cn1)ncn2C [Compound 352, {2-Ethyl-4-[1-(2,2,2-trifluoro-ethanesulfonyl)-azetidin-3-yl]-phenyl}-methyl-(1-methyl-1H-imidazo[4,5-c]pyridin-6-yl)-amine] | > 1000 |
| 0.01 to 100 | 101 to 500 | > 5000 | 101 to 500 | – | 0.01 to 100 | CCc1cc(C2CN(CC#N)C2)ccc1N(C)c1cc2c(cn1)ncn2C [Compound 351, (3-{3-Ethyl-4-[methyl-(1-methyl-1H-imidazo[4,5-c]pyridin-6-yl)-amino]-phenyl}-azetidin-1-yl)-acetonitrile] | > 1000 |
| 0.01 to 100 | 101 to 500 | 1000 to 5000 | 0.01 to 100 | – | 0.01 to 100 | CCc1cc(C(C#N)N2CCC2)ccc1N(C)c1cc2c(cn1)ncn2C (centres unmarked) [Compound 394] | > 1000 |
| 0.01 to 100 | 0.01 to 100 | > 5000 | 0.01 to 100 | – | 0.01 to 100 | CCc1cc(C(C#N)N2CCOCC2)ccc1N(C)c1cc2c(cn1)ncn2C (centres unmarked) [Compound 393, {3-Ethyl-4-[methyl-(1-methyl-1H-imidazo[4,5-c]pyridin-6-yl)-amino]-phenyl}-morpholin-4-yl-acetonitrile] | > 1000 |
